Values of other authors as cited in patent publication US6960571B2, “Methods and compositions for administration of iron for the treatment of restless leg syndrome” (Luitpold Pharmaceuticals, Inc., priority 2003, dated 2005).
Where two headings read alike, the source gives them in different places.

Compound: Cc1nnc2n1-c1ccc(Cl)cc1C(c1ccccc1Cl)=NC2 [Triazolam]
- % affected by side effects (Insomnia patients, drowsiness, dizziness, memory impairment): 1-14%

Compound: CCCN[C@H]1CCc2nc(N)sc2C1 [Pramipexole]
- % affected by side effects (Parkinson patients, somnolence, insomnia, nausea, constipation, hallucinations): 9-28%

Compound: Clc1cccc(Cl)c1N=C1NCCN1 [Clonidine]
- % affected by side effects (Hypertension patients, reduced blood pressure, dermatitis, systemic side effects (dry mouth, somnolence, dizziness, headache)): 8-89%

Compound: Pergolide w/ levodopa/carbidopa
- % affected by side effects (Parkinson patients, dyskinesia, nausea, hallucinations, rhinitis, constipation, pain): 7-62%

Compound: NCC1(CC(=O)O)CCCCC1 [Gabapentin]
- % affected by side effects (Epilepsy patients, fatigue, dizziness, somnolence, ataxia): 11-19%

Compound: levodopa/carbidopa
- % affected by side effects (Parkinson patients, dyskinesia, nausea, hallucinations): 4-17%

Compound: NC(=O)N1c2ccccc2C=Cc2ccccc21 [Carbamazepine]
- % affected by side effects (Epilepsy patients, fetal malformation, rash, hyponatremia, hepatotoxicity, blood disorders, ataxia, gastro-intestinal problems, sexual dysfunction, toxicity): 1-33%

Compound: O=C1CN=C(c2ccccc2Cl)c2cc([N+](=O)[O-])ccc2N1 [Clonazepam]
- % affected by side effects (Epilepsy patients, somnolence, depression, in-coordination): 6-37%
